In patent publication US7612071B2, “Compositions and methods employing aminopterin” (Syntrix Biosystems, Inc., priority 2004, dated 2009):
Read-outs that look alike come from different tables or passages of the source.

Experiments:
[1] = MTX 15-25 mg/m^2 PO, n=22, prior art; cited from earlier work
[2] = system: standard and high-risk ALL; details: for Toxicity Component: Antifolate dose causing 5.8% of the population to have the toxicity: Elevations in liver enzymes >5 times normal (severe hepatotoxicity)
[3] = mice, 4 weekly ip doses (aminopterin 0.03 mg/kg, methotrexate 0.3 mg/kg); days 1 and 22 after last dose
[4] = oral doses greater than about 7.5 mg/m^2; cited from earlier work
[5] = MTX 15-25 mg/m^2 PO, n=38, prior art; cited from earlier work
[6] = MTX 15-25 mg/m^2, pediatric patients, n=22, prior art; cited from earlier work
[7] = AMT 2 mg/m^2 PO x 2 (n=75), MTX 25 mg/m^2 PO x 4 (n=41)
[8] = AMT 2 mg/m^2 PO x 2 (n=81), MTX 25 mg/m^2 PO x 4 (n=42)
[9] = AMT 2 mg/m^2 PO x 2 (n=104), MTX 25 mg/m^2 PO x 4 (n=63)

CN(Cc1cnc2nc(N)nc(N)c2n1)c1ccc(C(=O)N[C@@H](CCC(=O)O)C(=O)O)cc1 [MTX, methotrexate, reference compound]
Interpatient coefficient of variation of oral bioavailability [1]: 59%
Event-free survival (EFS) at 24-months, Kaplan Meier ([2]; 25 high risk patients receiving aminopterin, standard risk patients receiving methotrexate): 86%
Coefficient of variation of toxicity, absolute neutrophil count in consolidation [2, 7]: 85%
Mean absolute neutrophil count in consolidation [2, 7]: 1919 cells/μL
Coefficient of variation of toxicity, platelet counts in consolidation [2, 8]: 47%
Mean platelet counts in consolidation [2, 8]: 312 cells × 10^3/μL
Coefficient of variation of toxicity, level of liver enzymes above normal [2, 9]: 36%
Mean level of liver enzymes above normal [2, 9]: 177 IU/L ALT
Coefficient of variation of toxicity, level of liver enzymes above normal ([2]; AMT 2 mg/m^2 PO x 2 (n=104), MTX 25 mg/m^2 PO x 4 (n=63), listed as methotrexate): 36%
Toxicity Component: Antifolate dose with same toxicity as MTX at 100 mg/m^2/wk ([2]; Any elevation of liver enzymes): 100 mg/m^2/wk
Toxicity Component: Antifolate dose causing 5.8% of the population to have the toxicity [2]: <100 mg/m^2/wk
Toxicity Component: Antifolate dose causing 5.8% of the population to have the toxicity ([2]; listed as methotrexate): less than 100 mg/m^2/wk
Toxicity Component: Antifolate dose with same toxicity as MTX at 100 mg/m^2/wk ([2]; Hospital admissions): 100 mg/m^2/wk
Toxicity Component: Antifolate dose with same toxicity as MTX at 100 mg/m^2/wk ([2]; Mucositis): 100 mg/m^2/wk
Toxicity Component: Antifolate dose with same toxicity as MTX at 100 mg/m^2/wk ([2]; Myelosuppression): 100 mg/m^2/wk
Toxicity Component: Antifolate dose with same toxicity as MTX at 100 mg/m^2/wk ([2]; Neutropenia): 100 mg/m^2/wk
Toxicity Component: Antifolate dose with same toxicity as MTX at 100 mg/m^2/wk ([2]; Thrombocytopenia): 100 mg/m^2/wk
Toxicity Component: Antifolate dose with same toxicity as MTX at 100 mg/m^2/wk ([2]; Treatment interruptions): 100 mg/m^2/wk
Toxicity Component: Antifolate dose with same toxicity as MTX at 100 mg/m^2/wk ([2]; eAMT and eMTX (marrow exposure)): 100 mg/m^2/wk
antifolate content in liver, aminopterin vs methotrexate [3]: no different
oral bioavailability [4]: ≤ 44%
Mean intrapatient coefficient of variation of oral bioavailability [5]: 34%
Interpatient oral bioavailability (%) [6]: 44%
Maximum (%) oral bioavailability [6]: 95%
Minimum (%) oral bioavailability [6]: 6%
